Results reported in PubChem BioAssay (NCI).
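Five concentrations, 48 hours, 96-well plates. TGI denotes the concentration required for complete inhibition of growth.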

Experiments:
Assay in all cases: growth of human tumour cells (NCI), 48 h
SK-OV-3 ovarian = test system: SK-OV-3 ovarian
EKVX NSCLC = test system: EKVX NSCLC
CCRF-CEM leukemia = test system: CCRF-CEM leukemia
UACC-257 melanoma = test system: UACC-257 melanoma
HCT-15 colon = test system: HCT-15 colon
OVCAR-5 ovarian = test system: OVCAR-5 ovarian
HCT-116 colon = test system: HCT-116 colon
DMS 273 small cell lung = test system: DMS 273 small cell lung
SK-MEL-5 melanoma = test system: SK-MEL-5 melanoma
A498 renal = test system: A498 renal
COLO 205 colon = test system: COLO 205 colon
A549 NSCLC = test system: A549 NSCLC
HOP-18 NSCLC = test system: HOP-18 NSCLC
LOX IMVI melanoma = test system: LOX IMVI melanoma
SF-268 CNS = test system: SF-268 CNS
ACHN renal = test system: ACHN renal
DLD-1 colon = test system: DLD-1 colon
786-0 renal = test system: 786-0 renal
HCC-2998 colon = test system: HCC-2998 colon
M14 melanoma = test system: M14 melanoma
DMS 114 small cell lung = test system: DMS 114 small cell lung
SR leukemia = test system: SR leukemia
SN12C renal = test system: SN12C renal
UACC-62 melanoma = test system: UACC-62 melanoma
MALME-3M melanoma = test system: MALME-3M melanoma
HOP-62 NSCLC = test system: HOP-62 NSCLC
NCI-H460 lung = test system: NCI-H460 lung
OVCAR-3 ovarian = test system: OVCAR-3 ovarian
TK-10 renal = test system: TK-10 renal
LXFL 529 NSCLC = test system: LXFL 529 NSCLC
OVCAR-4 ovarian = test system: OVCAR-4 ovarian
HL-60(TB) leukemia = test system: HL-60(TB) leukemia
SNB-75 CNS = test system: SNB-75 CNS
SK-MEL-2 melanoma = test system: SK-MEL-2 melanoma
U251 CNS = test system: U251 CNS
UO-31 renal = test system: UO-31 renal
SF-295 CNS = test system: SF-295 CNS
SNB-78 CNS = test system: SNB-78 CNS
RPMI-8226 leukemia = test system: RPMI-8226 leukemia
KM20L2 colon = test system: KM20L2 colon
SW-620 colon = test system: SW-620 colon
HT29 colon = test system: HT29 colon
IGROV1 ovarian = test system: IGROV1 ovarian
OVCAR-8 ovarian = test system: OVCAR-8 ovarian
K-562 leukemia = test system: K-562 leukemia
HOP-92 NSCLC = test system: HOP-92 NSCLC
M19-MEL melanoma = test system: M19-MEL melanoma
MOLT-4 leukemia = test system: MOLT-4 leukemia
NCI-H226 lung = test system: NCI-H226 lung
SK-MEL-28 melanoma = test system: SK-MEL-28 melanoma
SNB-19 CNS = test system: SNB-19 CNS
CAKI-1 renal = test system: CAKI-1 renal
KM12 colon = test system: KM12 colon
SF-539 CNS = test system: SF-539 CNS
NCI-H23 lung = test system: NCI-H23 lung
PC-3 prostate = test system: PC-3 prostate
RXF 393 renal = test system: RXF 393 renal
DU-145 prostate = test system: DU-145 prostate
MDA-N = test system: MDA-N
T-47D breast = test system: T-47D breast
BT-549 breast = test system: BT-549 breast
MDA-MB-231 breast = test system: MDA-MB-231 breast
MDA-MB-435 = test system: MDA-MB-435
MCF7 breast = test system: MCF7 breast
NCI/ADR-RES ovarian = test system: NCI/ADR-RES ovarian
HS 578T breast = test system: HS 578T breast
NCI-H522 lung = test system: NCI-H522 lung

COc1ccccc1NC(=O)C1=C(C)NC(C)=C(C(=O)Nc2ccccc2OC)C1/C=C/c1ccccc1
TGI (SK-OV-3 ovarian): > 100 µM | TGI (EKVX NSCLC): > 100 µM | TGI (CCRF-CEM leukemia): > 100 µM | TGI (UACC-257 melanoma): > 100 µM | TGI (HCT-15 colon): > 100 µM | TGI (OVCAR-5 ovarian): > 100 µM | TGI (HCT-116 colon): > 100 µM | TGI (DMS 273 small cell lung): > 100 µM | TGI (SK-MEL-5 melanoma): > 100 µM | TGI (A498 renal): > 100 µM | TGI (COLO 205 colon): > 100 µM | TGI (A549 NSCLC): > 100 µM | TGI (HOP-18 NSCLC): > 100 µM | TGI (LOX IMVI melanoma): > 100 µM | TGI (SF-268 CNS): > 100 µM | TGI (ACHN renal): > 100 µM | TGI (DLD-1 colon): > 100 µM | TGI (786-0 renal): > 100 µM | TGI (HCC-2998 colon): > 100 µM | TGI (M14 melanoma): > 100 µM | TGI (DMS 114 small cell lung): > 100 µM | TGI (SR leukemia): > 100 µM | TGI (SN12C renal): > 100 µM | TGI (UACC-62 melanoma): > 100 µM | TGI (MALME-3M melanoma): > 100 µM | TGI (HOP-62 NSCLC): > 100 µM | TGI (NCI-H460 lung): > 100 µM | TGI (OVCAR-3 ovarian): > 100 µM | TGI (TK-10 renal): > 100 µM | TGI (LXFL 529 NSCLC): > 100 µM | TGI (OVCAR-4 ovarian): > 100 µM | TGI (HL-60(TB) leukemia): > 100 µM | TGI (SNB-75 CNS): 79.7 µM | TGI (SK-MEL-2 melanoma): > 100 µM | TGI (U251 CNS): > 100 µM | TGI (UO-31 renal): > 100 µM | TGI (SF-295 CNS): > 100 µM | TGI (SNB-78 CNS): > 100 µM | TGI (RPMI-8226 leukemia): > 100 µM | TGI (KM20L2 colon): > 100 µM | TGI (SW-620 colon): > 100 µM | TGI (HT29 colon): > 100 µM | TGI (IGROV1 ovarian): > 100 µM | TGI (OVCAR-8 ovarian): > 100 µM | TGI (K-562 leukemia): > 100 µM | TGI (HOP-92 NSCLC): > 100 µM | TGI (M19-MEL melanoma): > 100 µM | TGI (MOLT-4 leukemia): > 100 µM | TGI (NCI-H226 lung): > 100 µM | TGI (SK-MEL-28 melanoma): > 100 µM | TGI (SNB-19 CNS): > 100 µM | TGI (CAKI-1 renal): > 100 µM | TGI (KM12 colon): > 100 µM | TGI (SF-539 CNS): > 100 µM | TGI (NCI-H23 lung): > 100 µM

CC(C)OC(=S)Nc1ccc(Cl)c(/C=N/OC(C)(C)C)c1
TGI (SK-OV-3 ovarian): 41.6 µM | TGI (PC-3 prostate): 38.1 µM | TGI (EKVX NSCLC): 36.3 µM | TGI (CCRF-CEM leukemia): 36.8 µM | TGI (UACC-257 melanoma): 37.4 µM | TGI (HCT-15 colon): 32.4 µM | TGI (OVCAR-5 ovarian): 30.8 µM | TGI (HCT-116 colon): 29.9 µM | TGI (RXF 393 renal): 30.9 µM | TGI (SK-MEL-5 melanoma): 31.8 µM | TGI (A498 renal): 28.2 µM | TGI (COLO 205 colon): 32.3 µM | TGI (A549 NSCLC): 40 µM | TGI (LOX IMVI melanoma): 34.3 µM | TGI (SF-268 CNS): 40.4 µM | TGI (ACHN renal): 28.7 µM | TGI (DU-145 prostate): 17.6 µM | TGI (MDA-N): 42 µM | TGI (T-47D breast): 38.7 µM | TGI (786-0 renal): 34.3 µM | TGI (HCC-2998 colon): 41.4 µM | TGI (M14 melanoma): 39.9 µM | TGI (SR leukemia): 39.3 µM | TGI (SN12C renal): 31.6 µM | TGI (UACC-62 melanoma): 30.9 µM | TGI (MALME-3M melanoma): 34.2 µM | TGI (HOP-62 NSCLC): 41.4 µM | TGI (BT-549 breast): 34.1 µM | TGI (MDA-MB-231 breast): 31.5 µM | TGI (NCI-H460 lung): 33.1 µM | TGI (OVCAR-3 ovarian): 33.6 µM | TGI (TK-10 renal): 17.1 µM | TGI (MDA-MB-435): 32.3 µM | TGI (MCF7 breast): 51 µM | TGI (OVCAR-4 ovarian): 35.3 µM | TGI (HL-60(TB) leukemia): 37.8 µM | TGI (SNB-75 CNS): 54.7 µM | TGI (SK-MEL-2 melanoma): 37.5 µM | TGI (U251 CNS): 31.7 µM | TGI (UO-31 renal): 27.2 µM | TGI (SF-295 CNS): 18.6 µM | TGI (RPMI-8226 leukemia): 51.3 µM | TGI (SW-620 colon): 32 µM | TGI (HT29 colon): 28.6 µM | TGI (NCI/ADR-RES ovarian): 16.8 µM | TGI (IGROV1 ovarian): 36.6 µM | TGI (OVCAR-8 ovarian): 17 µM | TGI (K-562 leukemia): 43 µM | TGI (HOP-92 NSCLC): 25.5 µM | TGI (MOLT-4 leukemia): 30.8 µM | TGI (NCI-H226 lung): 34.2 µM | TGI (SK-MEL-28 melanoma): 44.8 µM | TGI (SNB-19 CNS): 44.2 µM | TGI (CAKI-1 renal): 32.8 µM | TGI (HS 578T breast): 38.6 µM | TGI (KM12 colon): 17.6 µM | TGI (SF-539 CNS): 31.7 µM | TGI (NCI-H23 lung): 39.4 µM | TGI (NCI-H522 lung): 30.8 µM

NC(N)=NC1C(O)C(O)C(O)C(N=C(N)N)C1O (configuration not stated)
TGI (SK-OV-3 ovarian): > 100 µM | TGI (PC-3 prostate): > 100 µM | TGI (EKVX NSCLC): > 100 µM | TGI (CCRF-CEM leukemia): > 100 µM | TGI (UACC-257 melanoma): > 100 µM | TGI (HCT-15 colon): > 100 µM | TGI (OVCAR-5 ovarian): > 100 µM | TGI (HCT-116 colon): > 100 µM | TGI (RXF 393 renal): > 100 µM | TGI (SK-MEL-5 melanoma): > 100 µM | TGI (A498 renal): > 100 µM | TGI (COLO 205 colon): > 100 µM | TGI (A549 NSCLC): > 100 µM | TGI (LOX IMVI melanoma): > 100 µM | TGI (SF-268 CNS): > 100 µM | TGI (ACHN renal): > 100 µM | TGI (DU-145 prostate): > 100 µM | TGI (MDA-N): > 100 µM | TGI (T-47D breast): > 100 µM | TGI (786-0 renal): > 100 µM | TGI (HCC-2998 colon): > 100 µM | TGI (M14 melanoma): > 100 µM | TGI (SR leukemia): > 100 µM | TGI (SN12C renal): > 100 µM | TGI (UACC-62 melanoma): > 100 µM | TGI (MALME-3M melanoma): > 100 µM | TGI (HOP-62 NSCLC): > 100 µM | TGI (BT-549 breast): > 100 µM | TGI (MDA-MB-231 breast): > 100 µM | TGI (NCI-H460 lung): > 100 µM | TGI (OVCAR-3 ovarian): > 100 µM | TGI (TK-10 renal): > 100 µM | TGI (MDA-MB-435): > 100 µM | TGI (MCF7 breast): > 100 µM | TGI (OVCAR-4 ovarian): > 100 µM | TGI (HL-60(TB) leukemia): > 100 µM | TGI (SNB-75 CNS): > 100 µM | TGI (SK-MEL-2 melanoma): > 100 µM | TGI (U251 CNS): > 100 µM | TGI (UO-31 renal): > 100 µM | TGI (SF-295 CNS): > 100 µM | TGI (RPMI-8226 leukemia): > 100 µM | TGI (SW-620 colon): > 100 µM | TGI (HT29 colon): > 100 µM | TGI (NCI/ADR-RES ovarian): > 100 µM | TGI (IGROV1 ovarian): > 100 µM | TGI (OVCAR-8 ovarian): > 100 µM | TGI (K-562 leukemia): > 100 µM | TGI (HOP-92 NSCLC): > 100 µM | TGI (MOLT-4 leukemia): > 100 µM | TGI (SK-MEL-28 melanoma): > 100 µM | TGI (SNB-19 CNS): > 100 µM | TGI (CAKI-1 renal): > 100 µM | TGI (HS 578T breast): > 100 µM | TGI (KM12 colon): > 100 µM | TGI (SF-539 CNS): > 100 µM | TGI (NCI-H23 lung): > 100 µM | TGI (NCI-H522 lung): > 100 µM
